Measurements published in the NIST ThermoML archive (doi:10.1021/je060271a).
± gives the expanded uncertainty stated by the source.

Settings: 303.16 K, Liquid, Vibrating tube method

CCCCCC(=O)OCC(COC(=O)CCCCC)(COC(=O)CCCCC)COC(=O)CCCCC [pentaerythritol tetrahexanoate]
Settings	mass density [kg/m3]
380.8 kPa	988.5 ± 1.2
382.9 kPa	988.7 ± 1.2
385.3 kPa	988.6 ± 1.2
387.4 kPa	988.6 ± 1.2
454.3 kPa	988.6 ± 1.2
457.1 kPa	988.6 ± 1.2
461.3 kPa	988.6 ± 1.2
465.1 kPa	988.6 ± 1.2
468 kPa	988.6 ± 1.2
470.8 kPa	988.7 ± 1.2
474.1 kPa	988.6 ± 1.2
478 kPa	988.6 ± 1.2
481.2 kPa	988.6 ± 1.2
484.7 kPa	988.7 ± 1.2
488.4 kPa	988.7 ± 1.2
491.7 kPa	988.7 ± 1.2
495.5 kPa	988.7 ± 1.2
498.8 kPa	988.7 ± 1.2
502.4 kPa	988.7 ± 1.2
505.6 kPa	988.6 ± 1.2
509.2 kPa	988.8 ± 1.2
513.8 kPa	988.7 ± 1.2
517.4 kPa	988.7 ± 1.2
521.2 kPa	988.6 ± 1.2
525.6 kPa	988.7 ± 1.2
529.6 kPa	988.8 ± 1.2
534.1 kPa	988.7 ± 1.2
537.9 kPa	988.6 ± 1.2
542.3 kPa	988.9 ± 1.2
546.9 kPa	988.7 ± 1.2
550.9 kPa	988.7 ± 1.2
555.3 kPa	988.8 ± 1.2
559.5 kPa	988.8 ± 1.2
564.3 kPa	988.8 ± 1.2
569 kPa	988.8 ± 1.2
574.4 kPa	988.9 ± 1.2
692 kPa	988.8 ± 1.2
698.5 kPa	988.8 ± 1.2
706.1 kPa	988.8 ± 1.2
712.5 kPa	988.8 ± 1.2
719.3 kPa	988.9 ± 1.2
727 kPa	988.7 ± 1.2
734.3 kPa	988.8 ± 1.2
741.2 kPa	988.8 ± 1.2
748.1 kPa	988.8 ± 1.2
756.7 kPa	988.8 ± 1.2
763.8 kPa	988.9 ± 1.2
771.6 kPa	988.9 ± 1.2
779.1 kPa	988.8 ± 1.2
788.5 kPa	988.9 ± 1.2
796.3 kPa	988.8 ± 1.2
804.1 kPa	988.8 ± 1.2
811.9 kPa	988.9 ± 1.2
821.6 kPa	988.9 ± 1.2
829.8 kPa	988.8 ± 1.2
848 kPa	988.8 ± 1.2
856.6 kPa	988.9 ± 1.2
864.9 kPa	989 ± 1.2
1404 kPa	989.4 ± 1.2
1416.2 kPa	989.4 ± 1.2
1431.1 kPa	989.2 ± 1.2
1443.8 kPa	989.3 ± 1.2
1456.5 kPa	989.3 ± 1.2
1642.7 kPa	989.5 ± 1.2
1657.5 kPa	989.4 ± 1.2
1672.3 kPa	989.4 ± 1.2
1686.8 kPa	989.3 ± 1.2
1704.7 kPa	989.4 ± 1.2
1818.6 kPa	989.6 ± 1.2
1834.9 kPa	989.6 ± 1.2
1940.6 kPa	989.6 ± 1.2
1957.6 kPa	989.6 ± 1.2
1975.3 kPa	989.7 ± 1.2
1996.3 kPa	989.5 ± 1.2
2014.2 kPa	989.6 ± 1.2
2035.9 kPa	989.6 ± 1.2
2053.6 kPa	989.7 ± 1.2
2072.3 kPa	989.7 ± 1.2
2129.6 kPa	989.6 ± 1.2
2148.3 kPa	989.7 ± 1.2
2190 kPa	989.9 ± 1.2
2209.4 kPa	989.7 ± 1.2
2272.4 kPa	989.7 ± 1.2
4203.4 kPa	991.1 ± 1.2
4236.8 kPa	991 ± 1.2
4264.7 kPa	991.2 ± 1.2
4292.6 kPa	991.1 ± 1.2
4320.1 kPa	991.1 ± 1.2
4352.9 kPa	991.2 ± 1.2
4379.7 kPa	991.1 ± 1.2
4406.5 kPa	991.2 ± 1.2
4438.4 kPa	991.1 ± 1.2
4464.5 kPa	991.2 ± 1.2
4490.5 kPa	991.3 ± 1.2
4516.1 kPa	991.2 ± 1.2
4546.4 kPa	991.3 ± 1.2
4570.9 kPa	991.3 ± 1.2
4594.9 kPa	991.4 ± 1.2
4622.1 kPa	991.2 ± 1.2
4643.9 kPa	991.3 ± 1.2
4664.2 kPa	991.3 ± 1.2
4683 kPa	991.5 ± 1.2
4704.7 kPa	991.4 ± 1.2
4723 kPa	991.4 ± 1.2
4740.8 kPa	991.3 ± 1.2
4757.6 kPa	991.4 ± 1.2
4774.9 kPa	991.4 ± 1.2
4794.3 kPa	991.6 ± 1.2
4810.9 kPa	991.4 ± 1.2
4827 kPa	991.4 ± 1.2
4842.8 kPa	991.5 ± 1.2
4861.3 kPa	991.4 ± 1.2
4908.5 kPa	991.5 ± 1.2
5374.3 kPa	991.8 ± 1.2
5390.7 kPa	991.8 ± 1.2
5411 kPa	991.8 ± 1.2
5427.2 kPa	991.8 ± 1.2
5447.1 kPa	991.9 ± 1.2
5464.4 kPa	991.8 ± 1.2
5481.4 kPa	991.9 ± 1.2
5498.1 kPa	991.8 ± 1.2
5518.7 kPa	991.9 ± 1.2
5591.9 kPa	992 ± 1.2
5609.7 kPa	992 ± 1.2
5627.2 kPa	991.9 ± 1.2
5647.7 kPa	991.9 ± 1.2
5665.4 kPa	992 ± 1.2
5875.7 kPa	992.1 ± 1.2
5894 kPa	992.1 ± 1.2
5931.3 kPa	992.1 ± 1.2
5953.6 kPa	992.2 ± 1.2
5972 kPa	992.2 ± 1.2
5990.6 kPa	992.2 ± 1.2
6012.9 kPa	992.2 ± 1.2
6031.6 kPa	992.2 ± 1.2
6050.3 kPa	992.2 ± 1.2
6072.9 kPa	992.2 ± 1.2
6111.5 kPa	992.2 ± 1.2
10602 kPa	995.1 ± 1.2
10632 kPa	995.1 ± 1.2
10660 kPa	995.1 ± 1.2
10689 kPa	995 ± 1.2
10724 kPa	995.1 ± 1.2
10753 kPa	995.2 ± 1.2
10782 kPa	995.1 ± 1.2
